The values below come from patent publication US6203822A, “Gallium-containing compounds for the treatment of infections caused by intracellular pathogens and pathogens causing chronic pulmonary infection” (priority 1996, dated 2001).

Where two headings read alike, the source gives them in different places.

In data set [1] the test system is M. tuberculosis in human alveolar macrophages. The data set can be described thus: M. tuberculosis in human alveolar macrophages, gallium nitrate with or without anti-tuberculous antibiotics. It counts as cell-based. To be noted: full doses of first line antibiotics, by 24 h. The method, then: The gallium-containing compounds can also be tested for their ability to inhibit intracellular pathogens in tissue culture assays. In general, in these assays, the macrophages are placed in culture and incubated with the intracellular pathogen at an approximate cell to pathogen ratio of preferably at least 1:1 to about 1:5 cells:pathogen. Exemplary culture conditions are provided in the assays detailed in the Examples. For assays assessing M. tuberculosis infection, freshly adherent monocytes, 12 day-old adherent MDMs, or freshly adherent alveolar macrophages are incubated with M. tuberculosis, MAI or other intracellular bacteria at a ratio of about 1:1 to about 1:5 (phagocyte:bacterium). For M. tuberculosis or MAI, the bacteria are incubated with the phagocyte for 2 hr at 37° C. in RPMI/HEPES media with 2.5% serum or human serum albumin (serum-free). The cells are washed to remove non-adherent bacteria and monolayers are replated with RPMI containing 1% autologous serum (to maintain phagocyte viability but not to sustain extracellular growth of bacteria). Gallium-containing compounds, such as gallium nitrate, with, or without, other agents such as antibiotics, cytokines etc., are added about 24 hr. later and mycobacterial growth in cell lysates is then assessed over the next several days either by the radiometric BACTEC system or by colony-forming units on agarose plates. In each experiment, growth is assessed relative to control monolayers where no drug has been added.
Human alveolar macrophages were purified from healthy non-smoking adult volunteers and placed in monolayer culture. M. tuberculosis infected cells were treated with gallium nitrate as described in Example 2. Antituberculous antibiotics were added to wells alone or with gallium nitrate at 500 μM 24 h after M. tuberculosis infection. Antituberculous antibiotics tested included streptomycin (2.016 μg/ml), isoniazid (0.1 μg/ml), rifampin (2.0 μg/ml), and ethambutol (2.52 μg/ml) and the combination of antibiotics was denoted as SIRE. Antibiotics were obtained in lyophilized form from BACTEC. The antibiotics were reconstituted in sterile water per package instructions. With reference to FIG. 3, SIRE refers to combinations of streptomycin, isoniazid, rifampin and ethambutol while IR refers to combinations of Isoniazid and rifampin.
Infected macrophages were cultured for 24 h, 48 h, or 120 h. Growth index readings of combined supernatants and cell lysates were measured in the BACTEC 460 TB system. […] Since these antibiotics have a number of unpleasant side effects that are reduced at reduced concentrations of the drugs, combined therapies that permit these antibiotics to be administered at lower doses when combined with gallium nitrate is significant and may help to promote better drug compliance in patients infected with M. tuberculosis.

The next data set concerns bone cell. To be noted: cancer patients, large scale clinical studies (Todd et al.); cited from earlier work.
The conditions of data set [2]: known from literature; cited from earlier work.
For data set [3], the system named is macrophage monolayers (MDMs). Put plainly: Gallium toxicity in uninfected MDM monolayers. It is filed as cell-based, human. To be noted: in most cases, equivalent to untreated controls. As for the experimental part:
To test the potential toxicity of gallium nitrate on the standard macrophage monolayers (MDMs) used in the assays described in this invention, uninfected MDM monolayers were incubated with various concentrations of gallium nitrate in the range used in the studies described in Examples 2 and 3.
There was no immediate difference in monolayer density between MDM monolayers with and without gallium nitrate treatment up to a gallium concentration of 2 mM. Results were based on counting napthol blue macrophage stained nuclei from the monolayer. These numbers directly correlate with the number of cells present. In most cases the integrity of the MDM monolayer in the presence of gallium was maintained for up to 37 days, equivalent to untreated, uninfected control cultures.

The test system of data set [4] is M. tuberculosis strain H37Ra. It counts as cell-based.
For data set [5], the system named is macrophage ferritin and transferrin receptors. To be noted: Byrd, et al.; cited from earlier work.
Data set [6] concerns M. tuberculosis in macrophages. It is filed as cell-based.

In the case of `CC[C@@H](CO)NCCN[C@@H](CC)CO` [ethambutol], the “growth inhibition by full doses of first line antibiotics” value (from here on “growth inhibition by full doses”) in data set [1] is listed as “quite potent”. As for `[Ga]` [gallium], in the data set with bone cell, the “effect on bone cell morphology or viability” value is recorded as “did not affect bone cell morphology or viability”. For the same compound, the tissue accumulation entry in data set [2] was “accumulate in cells of mononuclear origin in the liver, kidney, spleen and lymphatic system”. In addition, in data set [3], the “time integrity of MDM monolayer maintained in presence of gallium” value is reported as “up to 37 days”. Regarding `NNC(=O)c1ccncc1` [isoniazid], in data set [1], the “growth inhibition by full doses” value was “quite potent”. With `CO[C@H]1/C=C/O[C@@]2(C)Oc3c(C)c(O)c4c(O)c(c(/C=N/N5CCN(C)CC5)c(O)c4c3C2=O)NC(=O)/C(C)=C\C=C\[C@H](C)[C@H](O)[C@@H](C)[C@@H](O)[C@@H](C)[C@H](OC(C)=O)[C@@H]1C` [rifampin], the “growth inhibition by full doses” value in data set [1] is reported as “quite potent”.

Consider `[H]/N=C(/N)N[C@H]1[C@H](O)[C@@H](O)[C@H](O[C@@H]2O[C@@H](C)[C@](O)(C=O)[C@H]2O[C@@H]2O[C@@H](CO)[C@H](O)[C@@H](O)[C@@H]2NC)[C@@H](N/C(N)=N\[H])[C@@H]1O` [streptomycin], for which the “growth inhibition by full doses” value in data set [1] was “quite potent”. For the compound “gallium transferrin: Human apotransferrin mixed 1:1 (by molar ratio) with gallium”, the “concentration of gallium with marked inhibition of growth” value in data set [4] (growth index Day 10, broth culture, apotransferrin mixed 1:1 with gallium) came out at 75 µM.

With “interferon-γ: Human interferon-γ (Genzyme, Cambridge, Mass.), cytokine”, in data set [5], the “effect on expression of transferrin receptors” value is “down regulate expression of transferrin receptors” and the “effect on macrophage ferritin levels” value is on record as “down regulate macrophage ferritin levels”. The “augmentation of gallium nitrate growth inhibition” value in data set [6] (IFN-γ in combination with 0 to about 400 μM gallium nitrate) is reported as “at least 50%”. For the same compound, the “augmentation of gallium nitrate growth inhibition” value in data set [6] (interferon-γ various concentrations (0-1000U), gallium nitrate at 100 μM) is on record as ≥ 50%. Turning to “transferrin: control cultures were treated with transferrin alone; Human apotransferrin (Sigma Chemicals)”, the “bacterial growth inhibition, control culture” value in data set [4] (transferrin alone) is listed as “no inhibition in bacterial growth”.
